PMC8222254, “Self-assembly of an anion receptor with metal-dependent kinase inhibition and potent in vitro anti-cancer properties” (Nature Communications, 2021)
pIC50: −log10 of the molar value. “And” between values parts separate entries of the source, which are not always exact repeats. Equal entries are not always repeated. Where two headings read alike, the source gives them in different places.

Legend:
Type in all cases: cell-based, human
PSN1 = assay: Chemosensitivity, 96 h continuous exposure, MTT assay;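 as to SI (NPI): adult human brain neural progenitor non-cancer cells from an epilepsy surgery patient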;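 as to Selectivity Index using the NPI non-cancer cell line: adult human brain neural progenitor non-cancer cells from an epilepsy surgery patient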
Method in brief: (§1)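 Cells were seeded overnight at 37 °C (2 × 10^3/well; GBM1 at 3 × 10^3/well on poly-L-ornithine/laminin in Neurobasal with hFGF/rhEGF), then exposed to compound concentration ranges for 96 h. Viability was read by MTT (4 h, formazan in DMSO, A540) and IC50 taken from dose–response curves.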

H460 = assay: as above;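 as to SI (NPI): adult human brain neural progenitor non-cancer cells from an epilepsy surgery patient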;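 as to Selectivity Index using the NPI non-cancer cell line: adult human brain neural progenitor non-cancer cells from an epilepsy surgery patient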
Method in brief: as §1

HT-29 = assay: as above
Method in brief: (§2)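 IC50 is the concentration giving 50% growth reduction, derived from dose-response curves of MTT absorbance at 540 nm. Before dosing, lines were plated at 2 × 10^3 cells/well, GBM1 stem-like cells at 3 × 10^3/well, overnight at 37 °C; compound exposure lasted 96 h without interruption, vehicle 0.2% DMSO.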

ARPE-19 non-cancer cells = assay: as above
Method in brief: as §2

HCT116 p53-/- = assay: Confocal imaging of autophagic cells (CYTO-ID); conditions: 3.125 µM, 40 h
Method: Cells were seeded in Lumox chamber slides (8-well, Sarstedt) at a density of 1.25 × 10^4 cells/well (ARPE-19) or 5.625 × 10^4 cells/well (HCT116 p53^−/− and HCT116 p53^+/+). 24 h after seeding, cells were treated with 3.125 μM of [L2Cu3]^6+, [L2Zn3]^6+, [L2Mn3]^6+, or vehicle control for 40 h before removal and addition of CYTO-ID Green autophagic dye (1:500 dilution, Enzo Life Sciences) and Hoechst 3342 nuclear counter stain for 30 min at 37 °C. Media was then replaced before imaging using a Zeiss LSM880 confocal laser scanning microscope.

Structure (SMILES): CC(=O)[O-].CC(=O)[O-].CC(=O)[O-].CC(=O)[O-].CC(=O)[O-].CC(=O)[O-].[Zn+2].[Zn+2].[Zn+2].c1ccc(-c2csc(NCCN(CCNc3nc(-c4ccccn4)cs3)CCNc3nc(-c4ccccn4)cs3)n2)nc1.c1ccc(-c2csc(NCCN(CCNc3nc(-c4ccccn4)cs3)CCNc3nc(-c4ccccn4)cs3)n2)nc1 [[L2Zn3]6+]
- Selectivity index (ARPE19) (PSN1; IC50 ARPE-19 / IC50 PSN1): 35.39
- Selectivity index (MCF10A) (PSN1; IC50 MCF10A / IC50 PSN1): 36.38
- Selectivity Index using the NPI non-cancer cell line (PSN1; IC50 NP1 / IC50 PSN1): 1.75
- pIC50 (PSN1; PSN1, 96 h, MTT, individual run, read-out: IC50 values for each replicate): 5.21 and 5.31 and 5.65
- pIC50 (PSN1; PSN1, 96 h, MTT, mean of at least 3 independent experiments, read-out: Mean IC50): < 6.00
- pIC50 (PSN1; PSN1, mean of replicates, read-out: Mean IC50): 5.35
- pIC50 (PSN1; PSN1, read-out: Mean IC50 values): 5.35
- SI (ARPE19) (PSN1; mean IC50 ARPE-19 / mean IC50 PSN1): 35.39
- SI (MCF10A) (PSN1; mean IC50 MCF10A / mean IC50 PSN1): 36.38
- SI (NPI) (PSN1; mean IC50 NP1 / mean IC50 PSN1): 1.75
- Relative potency (+ anion to no anion), Ratio + anion:no anion (PSN1; ratio of IC50, PSN1): 1
- Selectivity indices relative to ARPE-19, Ratio + anion:no anion (PSN1; ratio of SI (ARPE-19), PSN1): 1
- Selectivity indices relative to MCF10A, Ratio + anion:no anion (PSN1; ratio of SI (MCF 10A), PSN1): 1
- pIC50 (H460; H460, 96 h, MTT, individual run, read-out: IC50 values for each replicate): 6.73 and 6.56 and 6.25 and 6.63 and 6.36 and 6.23
- pIC50 (H460; H460, 96 h, MTT, mean of at least 3 independent experiments, read-out: Mean IC50): 6.44
- pIC50 (H460; H460, mean of replicates, read-out: Mean IC50): 6.44
- pIC50 (H460; H460, read-out: Mean IC50 values): 6.44
- Selectivity index (ARPE19) (H460; IC50 ARPE-19 / IC50 H460): 436.81
- Selectivity index (MCF10A) (H460; IC50 MCF10A / IC50 H460): 449.00
- Selectivity Index using the NPI non-cancer cell line (H460; IC50 NP1 / IC50 H460): 21.61
- SI (ARPE19) (H460; mean IC50 ARPE-19 / mean IC50 H460): 436.81
- SI (MCF10A) (H460; mean IC50 MCF10A / mean IC50 H460): 449.00
- SI (NPI) (H460; mean IC50 NP1 / mean IC50 H460): 21.61
- Relative potency (+ anion to no anion), Ratio + anion:no anion (H460; ratio of IC50, H460): 1
- Selectivity indices relative to ARPE-19, Ratio + anion:no anion (H460; ratio of SI (ARPE-19), H460): 1
- Selectivity indices relative to MCF10A, Ratio + anion:no anion (H460; ratio of SI (MCF 10A), H460): 1
- pIC50 (HT-29; HT29, mean of replicates, read-out: Mean IC50): 6.77
- pIC50 (HT-29; HT29, read-out: Mean IC50 values): 6.77
- pIC50 (HT-29; HT-29, 96 h, MTT, individual run, read-out: IC50 values for each replicate): 7.08 and 6.79 and 6.63 and 6.74
- pIC50 (HT-29; HT-29, 96 h, MTT, mean of at least 3 independent experiments, read-out: Mean IC50): 6.77
- Selectivity index (ARPE19) (HT-29; IC50 ARPE-19 / IC50 HT29): 930.47
- Selectivity index (MCF10A) (HT-29; IC50 MCF10A / IC50 HT29): 956.45
- Selectivity Index using the NPI non-cancer cell line (HT-29; IC50 NP1 / IC50 HT29): 46.04
- SI (ARPE19) (HT-29; mean IC50 ARPE-19 / mean IC50 HT-29): 930.47
- SI (MCF10A) (HT-29; mean IC50 MCF10A / mean IC50 HT-29): 956.45
- SI (NPI) (HT-29; mean IC50 NP1 / mean IC50 HT-29): 46.04
- Relative potency (+ anion to no anion), Ratio + anion:no anion (HT-29; ratio of IC50, HT29): 1
- Selectivity indices relative to ARPE-19, Ratio + anion:no anion (HT-29; ratio of SI (ARPE-19), HT29): 1
- Selectivity indices relative to MCF10A, Ratio + anion:no anion (HT-29; ratio of SI (MCF 10A), HT29): 1
- pIC50 (ARPE-19 non-cancer cells; ARPE-19, 96 h, MTT, individual run, read-out: IC50 values for each replicate): 3.81 and 3.80 and 3.84 and 3.77
- pIC50 (ARPE-19 non-cancer cells; ARPE-19, 96 h, MTT, mean of at least 3 independent experiments, read-out: Mean IC50): 3.80
- pIC50 (ARPE-19 non-cancer cells; ARPE-19, mean of replicates, read-out: Mean IC50): 3.80
- pIC50 (ARPE-19 non-cancer cells; ARPE-19 non-cancer, read-out: Mean IC50 values): 3.80
- Relative potency (+ anion to no anion), Ratio + anion:no anion (ARPE-19 non-cancer cells; ratio of IC50, ARPE-19): 1
- induction of vacuoles / autophagy (CYTO-ID) (HCT116 p53-/-): induced the appearance of vacuoles
